Data taken from article PMC9144402, “An Octopus-Derived Peptide with Antidiuretic Activity in Rats” (Marine Drugs, 2022).

Assays:
human OXTR [1] = target: T1, human OXTR (Homo sapiens, UniProt P30559); experiment: OXTR functional assay, agonist effect (intracellular Ca^2+ increase, fluorimetry, transfected ECV304 cells); assay type: cell-based; settings: up to 50 μM, RT, % of control response (1 µM OXT), triplicate
T1 construct: host or cells: ECV304
T1 sequence (P30559 1-389): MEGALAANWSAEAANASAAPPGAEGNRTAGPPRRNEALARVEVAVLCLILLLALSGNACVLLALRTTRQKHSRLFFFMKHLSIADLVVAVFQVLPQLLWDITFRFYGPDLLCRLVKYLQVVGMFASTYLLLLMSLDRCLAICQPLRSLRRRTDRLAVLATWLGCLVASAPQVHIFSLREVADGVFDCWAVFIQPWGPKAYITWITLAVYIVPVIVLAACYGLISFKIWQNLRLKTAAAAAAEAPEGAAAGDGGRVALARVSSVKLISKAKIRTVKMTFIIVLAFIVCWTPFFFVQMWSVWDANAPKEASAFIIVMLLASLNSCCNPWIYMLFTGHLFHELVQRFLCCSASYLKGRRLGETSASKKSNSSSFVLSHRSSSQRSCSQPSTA
Protocol: (§1) Detailed information about the cells tested and other experimental conditions are described in Table 2. Briefly, cells were transfected with a recombinant expression vector capable of expressing each type of human OXT/AVP receptor. To evaluate the agonist effects on OXTR, V1aR, and V1bR, the intracellular Ca^2+ increase after treatment with OTP or CPT was measured by fluorimetry. […] For V2R receptors, cells were treated with peptides with or without the stimulant for 30 min. After that, cyclic AMP (cAMP) concentrations were measured by homogeneous time-resolved fluorescence (HTRF). The results were represented as the percent submaximal response achieved by the stimulant. All experiments were performed in triplicate. Data are presented as the mean ± standard error of the mean. The 50% effective concentration (EC50) and 50% inhibitory concentration (IC50) values were determined using a 4-parameter logistic fitting of a dose–response curve using SigmaPlot 10.0 (Systat Software, Palo Alto, CA, USA).

human OXTR [2] = target: T1, human OXTR; experiment: OXTR functional assay, antagonist effect (30 nM OXT-induced intracellular Ca^2+, fluorimetry, ECV304 cells); assay type: cell-based; settings: 50 μM; ECV304; stimulant 30 nM OXT; RT; fluorimetry; triplicate
Protocol: as §1

human V1aR [3] = target: T2, human V1aR (Homo sapiens, UniProt P37288); experiment: V1aR functional assay, agonist effect (intracellular Ca^2+ increase, fluorimetry, CHO cells); assay type: cell-based; settings: up to 50 μM, RT, % of control response (1 µM AVP), triplicate
T2 construct: host or cells: CHO
Protocol: as §1

human V1aR [4] = target: T2, human V1aR; experiment: V1aR functional assay, antagonist effect (10 nM AVP-induced intracellular Ca^2+, fluorimetry, CHO cells); assay type: cell-based; settings: all concentrations tested; CHO; stimulant 10 nM AVP; RT; fluorimetry; triplicate
Protocol: as §1

human V1bR [5] = target: T3, human V1bR (Homo sapiens, UniProt P47901); experiment: V1bR functional assay, agonist effect (intracellular Ca^2+ increase, fluorimetry, RBL cells); assay type: cell-based; settings: up to 50 μM; RBL; RT; fluorimetry; % of control response (0.1 µM AVP); triplicate
T3 construct: host or cells: RBL
T3 sequence (P47901 1-424): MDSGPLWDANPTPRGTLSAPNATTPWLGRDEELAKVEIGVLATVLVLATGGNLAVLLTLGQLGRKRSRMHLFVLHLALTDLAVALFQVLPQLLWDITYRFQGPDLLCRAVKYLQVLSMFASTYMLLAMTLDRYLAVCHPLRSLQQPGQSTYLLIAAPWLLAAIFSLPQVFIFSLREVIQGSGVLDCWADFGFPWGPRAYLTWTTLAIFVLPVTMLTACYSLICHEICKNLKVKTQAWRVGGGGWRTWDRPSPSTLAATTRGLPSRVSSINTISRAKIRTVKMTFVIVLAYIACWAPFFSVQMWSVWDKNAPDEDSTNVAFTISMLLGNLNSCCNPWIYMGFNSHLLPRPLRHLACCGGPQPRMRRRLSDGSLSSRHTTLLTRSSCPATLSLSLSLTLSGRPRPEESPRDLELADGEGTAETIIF
Protocol: as §1

human V1bR [6] = target: T3, human V1bR; experiment: V1bR functional assay, antagonist effect (5 nM AVP-induced intracellular Ca^2+, fluorimetry, RBL cells); assay type: cell-based; settings: all concentrations tested, stimulant 5 nM AVP, RT, triplicate
Protocol: as §1

human V2R [7] = target: T4, human V2R (Homo sapiens, UniProt P30518); experiment: V2R functional assay, agonist effect (cAMP accumulation, HTRF, CHO cells); assay type: cell-based; settings: 50 μM; CHO; 30 min RT; HTRF; % of control response (1 nM AVP); triplicate
T4 construct: host or cells: CHO
Protocol: as §1

human V2R [8] = target: T4, human V2R; experiment: V2R functional assay, antagonist effect (0.03 nM AVP-induced cAMP, HTRF, CHO cells); assay type: cell-based; settings: all concentrations tested, stimulant 0.03 nM AVP, 30 min RT, triplicate
Protocol: as §1

O. ocellatus = settings: ref [21]; cited from earlier work
From the text: (§2) These genes produce active nonapeptides, which are named octopressin (OTP) and cephalotocin (CPT). […] OTP was also reported to evoke hyperactivity in chromatophore cells, ra ...

Octopus vulgaris = settings: same species (Octopus vulgaris); ref [20]; cited from earlier work
From the text: as §2

[9] = system: common cuttlefish (Sepia officinalis); settings: ref [22]; cited from earlier work
From the text: as §2

[10] = system: oviduct, aorta, and rectum; settings: in vitro preparations of oviduct, ref [18]; cited from earlier work
From the text: as §2

T2 sequence (P37288 whole entry): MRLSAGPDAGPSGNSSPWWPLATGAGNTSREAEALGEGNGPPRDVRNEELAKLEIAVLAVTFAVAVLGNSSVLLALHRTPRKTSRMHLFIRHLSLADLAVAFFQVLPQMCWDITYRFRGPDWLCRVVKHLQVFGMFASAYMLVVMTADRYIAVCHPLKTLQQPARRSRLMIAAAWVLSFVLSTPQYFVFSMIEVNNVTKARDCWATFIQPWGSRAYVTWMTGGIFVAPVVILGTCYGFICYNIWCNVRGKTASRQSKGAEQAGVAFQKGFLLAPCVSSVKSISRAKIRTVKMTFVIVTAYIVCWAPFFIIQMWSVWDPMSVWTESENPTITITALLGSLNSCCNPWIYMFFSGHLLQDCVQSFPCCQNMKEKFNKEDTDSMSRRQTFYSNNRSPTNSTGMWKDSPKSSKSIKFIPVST

CYWTSCPIG-NH2 (disulfide bond) (disulfide) [OTP, octopressin, natural OXT/AVP analog from Octopus vulgaris, synthesized by solid-phase peptide synthesis]
OXTR-mediated intracellular Ca^2+ increase (agonist effect) (human OXTR [1]): did not seem to induce | inhibition rate of OXTR activation (human OXTR [2]): approximately 30% | V1aR-mediated intracellular Ca^2+ increase (agonist effect) (human V1aR [3]): did not seem to induce | antagonist effect against V1aR activation (human V1aR [4]): could not inhibit | V1bR-mediated intracellular Ca^2+ increase (agonist effect) (human V1bR [5]): did not seem to induce | antagonist effect against V1bR activation (human V1bR [6]): could not inhibit | V2R-mediated cAMP accumulation (agonist effect) (human V2R [7]): < 30% | antagonist effect against V2R activation (human V2R [8]): could not inhibit | hemolymph osmolality (O. ocellatus): decreases hemolymph osmolality | behavioral effect (Octopus vulgaris): hyperactivity in chromatophore cells, rapid respiration, and jetting water from the siphon | effect on long-term memory [9]: affect long-term memory | effect on peripheral tissues [10]: induced contractions
